{
  "source": "patent US20220023257A1",
  "about": "“TREATMENT OF DEMENTIA-ASSOCIATED TAUOPATHIES” (Medizinische Hochschule Hannover (MHH), priority 2018, published 2022)",
  "key": {"[1]": {"molecular_target": "T1, 5-HT7R (Homo sapiens, UniProt P34969)", "T1 construct": "HA (N); expressed in transfected cells; host or cells: N1E-115 (neuroblastoma cells)", "assay": "5-HT7R-induced Tau aggregation in HEK293 Tau-BiFC cells", "format": "cell-based", "details": "HEK293 Tau-BiFC cells transfected with CFP-5-HT7R; maximum intensity projections", "source_text": "Signals are normalized to DMSO-treated pcDNA-transfected cells. Data are represented as means+SDs (N=3). *** indicates statistical significance of p<0.001, n.s. not statistically different (one-way ANOVA, followed by Turkey's post hoc test). […] Representative maximum intensity projections of HEK293 Tau-BiFC cells transfected with control vector (mCerulean, blue) or 5-HT7R (CFP-5-HT7R, blue) upon the indicated treatment. […] Membranes were probed with total Tau (Abcam) and GAPDH antibody (Millipore). Signals are normalized to DMSO-treated pcDNA-transfected cells. Data are represented as means+SDs (N=3). ** indicates statistical significance of p<0.01, *** p<0.001, n.s. not statistically different (one-way ANOVA, followed by Turkey's post hoc test). […] HEK293 Tau-BiFC cells were transfected with (HA)5-HT7R and treated with the indicated concentration of Amisulpride."}, "[2]": {"tested_on": "WT mice injected with AAV-eGFP-Tau[R406W]", "assay": "Tau hyperphosphorylation and recency test in WT mice after AAV-eGFP-Tau[R406W] injection into the prefrontal cortex", "format": "in vivo", "details": "intraperitoneal, once daily for 16 days", "method": "A. Scheme showing experimental design: AAV-eGFP-Tau[R406W] was injected stereotactically into the prefrontal cortex (PFC) of WT mice. After 3 weeks of recovery time, animals were intraperitoneally injected with either Vehicle or Amisulpride once daily for 16 days. B. Staining of prefrontal cortical slices of mice after AAV injection and treatment with phospho-specific Tau antibody T205. Representative overview image and magnification are shown. C. Quantification of the mean intensities of eGFP-Tau and pTau over the whole slice and calculation of the pTau/Tau ratio. Data are shown as mean+SEM (N=5). * indicates statistical significance of p<0.05 (one-tailed unpaired t-test). D. Results of test for temporal order recognition memory (recency test). Quantification of exploration time spent with less recent (L) and recent (R) object and discrimination index. Data are presented as mean+SEM (9≥N≥7). * indicates statistical significance of p<0.05, ** p<0.01; n.s., not statistically different (paired t-test and Wilcoxon signed rank test were applied to analyze exploration time, one-way ANOVA was applied to analyze the discrimination ratio)."}, "[3]": {"tested_on": "eGFP-Tau[R406W]-infected primary cortical neurons", "assay": "Tau tangle formation and apoptosis in eGFP-Tau[R406W]-infected primary cortical neurons", "format": "cell-based, mice", "details": "50 μM Amisulpride for three days, DIV 10-13", "description": "White boxes and its corresponding magnifications show representative neurons with and without tau tangles. Arrow heads indicate cells that were counted as tangle-positive. B. Quantification of tau tangles. The number of tangle-positive neurons was counted in a confined area in 6 independent experiments and is represented as a fraction of total number of infected neurons. * indicates statistical significance of p<0.05; ** p<0.01 (N=6; total analyzed cells […], one-way ANOVA, followed by Dunnett's post hoc test). C. […] D. Representative images of DIV14 primary cortical WT neurons infected at DIV10 either with AAV constructs encoding eGFP (white) or eGFP-Tau[R406W] (green). […] Fluorescence from cleaved substrate of active caspase3/7 indicating apoptosis is shown. E. Quantification of apoptosis. Apoptotic cells showing caspase3/7 activity were counted in a confined area in 6 independent experiments and are represented as a fraction of total number of infected neurons.\nA. Scheme showing experimental design. […] Neurons were analyzed at DIV 13. […] Arrowheads indicate cells that were counted as tangle-positive. […] Quantification of Tau tangles. The number of tangle-positive neurons was counted in a confined area in at least four independent experiments and is represented as a fraction of the total number of infected neurons. […] GAPDH expression was detected in a soluble fraction. […]"}},
  "data": [
    {"compound": "CCN1CCCC1CNC(=O)c1cc(S(=O)(=O)CC)c(N)cc1OC", "note": "(centres unmarked) [Amisulpride]", "values": [
      {"measurement": "Tangles of Venus-Tau (VN-Tau) in 5-HT7R-transfected cells", "setting": "[1]", "result": "disappeared"},
      {"measurement": "Tau[R406W]-induced memory impairments (recency test)", "setting": "[2]", "result": "ameliorates"},
      {"measurement": "Tau[R406W]-induced Tau hyperphosphorylation (pTau/Tau ratio, T205 staining)", "setting": "[2]; prefrontal cortical slices", "result": "ameliorates"},
      {"measurement": "5-HT7R-induced Tau tangle formation", "setting": "[3]", "result": "reduced"},
      {"measurement": "apoptosis (caspase3/7 activity)", "setting": "[3]", "result": "reduced"}
    ]}
  ]
}
